Data on 16 compounds can be found in patent US5852028A, “Pyrimidine carboxylates and related compounds and methods for treating inflammatory conditions” (Signal Pharmaceuticals, Inc., priority 1995, dated 1998).

SMILES strings stand for the structures.

The subject of the first experiment is mice.
Test: not given
The conditions noted are these: Morris et al., 1990; cited from earlier work.
In the case of `O=P1(N(CCCl)CCCl)NCCCO1` (centres unmarked) [cyclophosphamide], the “activity in contact sensitivity model (delayed-type hypersensitivity to oxazolone)” value was “active”.

The test system of another experiment is NFκB/AP-1. In words: NFκB and AP-1 luciferase reporter gene assays in PMA/PHA-stimulated Jurkat T-cells. The class given is cell-based. Conditions: Homo sapiens, stable Jurkat T-cells, PMA/PHA stimulation, 5 h. From the text:
Stable human Jurkat T-cells containing an NFκB binding site (from the MHC promoter) fused to a minimal SV-40 promoter driving luciferase expression were used in this experiment. Cells were split to 3×10^5 cells/mL every 2-3 days (cell concentration should not exceed 1×10^6 cells/mL to keep the cells proliferating in log phase). These cells were counted, resuspended in fresh medium containing 10% Serum-Plus at a density of 1×10^6 cells/mL and plated in 96 well round bottom plates (200 μ.LAMBDA. per well) 18 hours prior to starting the experiment.
Compounds of this invention, dissolved in dimethyl sulfoxide (3.3, 0.33 and 0.03 μg/mL), were then added to the 96 well plates containing the cells and the plates were incubated for 0.5 h at 37° C. Then 50 ng/mL of phorbol 12-myristate-13-acetate (PMA) and 1 μg/mL of phytohemagglutinin (PHA) were added to each well and the cells were incubated for an additional 5 h at 37° C. The plates were centrifuged at 2200 RPM for 3 minutes at room temperature and then the medium was removed. To each well was added 60 μL of cell lysis buffer and the plates were left at room temperature for 0.25 h. Then 40 μL of each cell extract was transferred to a black 96 well plate and 50 μL of luciferase substrate buffer was added. Luminescence was immediately measured using a Packard TopCount.
For AP-1, the assay was run as described above for NFκB except stable Jurkat T-cells were used that contained a the -73 collagenase promoter driving luciferase expression. In addition, the concentration of PMA used was 5 ng/mL.
In general terms: A reporter such as luciferase makes a cellular process visible.
Usually IC50 stands for the concentration that gives 50% inhibition. The low end stands for higher potency, the high end for lower potency. As for `CCOC(=O)c1cnc(NN2C(=O)C=C(C)C2=O)nc1C(F)(F)F` [Example 20, Ethyl 2-[N-(1'-aminocitraconamide)]-4-trifluoromethylpyrimidine-5-carboxylate], the IC50 amounted to 700 nM. Regarding `CCOC(=O)c1cnc(C(F)(F)F)nc1NN1C(=O)C=C(C)C1=O` [Example 21, Ethyl 4-[N-(1'-aminocitraconamide)]-2-trifluoromethylpyrimidine-5-carboxylate], the IC50 was 500 nM. Still for that read-out and setting: then `CC(=O)c1cnc(NN2C(=O)C=C(C)C2=O)nc1C(F)(F)F` [Example 23, 5-acetyl-2-[N-(1'-aminocitraconamide)]-4-trifluoromethylpyrimidine], with 5000 to 10000 nM; and `CCOC(=O)c1cnc(NN2C(=O)C=C(C)C2=O)nc1CC` [Example 36, Ethyl 2-[N-(1'-aminocitraconamide)]-4-ethylpyrimidine-5-carboxylate], with 150 nM. The same measure, in the same setting: as for `CCCc1nc(NN2C(=O)C=C(C)C2=O)ncc1C(=O)OCC` [Example 37, Ethyl 2-[N-(1'-aminocitraconamide)]-4-propylpyrimidine-5-carboxylate], the figure is 150 nM. The same measure, in the same setting: then `CCOC(=O)c1cnc(NN2C(=O)C=C(C)C2=O)nc1-c1cccs1` [Example 38, Ethyl 2-[N-(1'-aminocitraconamide)]-4-(2"-thiophenyl)pyrimidine-5-carboxylate], with 40 nM; and `CCOC(=O)c1cnc(NN2C(=O)C=C(c3ccccc3)C2=O)nc1C(F)(F)F` [Example 40, Ethyl 2-[N-(1'-amino-3'-phenylmaleimide)]-4-trifluoromethylpyrimidine-5-carboxylate], with 3000 nM. As to `CCOC(=O)c1cnc(NN2C(=O)C(C)=C(C)C2=O)nc1C(F)(F)F` [Example 41, Ethyl 2-[N-(1'-amino-3',4'-dimethylmaleimide)]-4-trifluoromethylpyrimidine-5-carboxylate], it took 5000 nM to reach half-maximal inhibition (IC50). The same measure, in the same setting: then `CCOC(=O)c1cnc(N(C)N2C(=O)C=C(C)C2=O)nc1C(F)(F)F` [Example 42, Ethyl 2-[N-(1'-aminocitraconamide)-N-methyl]-4-trifluoromethylpyrimidine-5-carboxylate], with 300 nM; and `CCOC(=O)c1cnc(C(F)(F)F)nc1NN1C(=O)C(C)=C(C)C1=O` [Example 44, Ethyl 4-[N-(1'-amino-3',4'-dimethylmaleimido)]-2-trifluoromethylpyrimidine-5-carboxylate], with 10000 to 30000 nM. Same read-out and setting: then `CCOC(=O)c1cnc(NN2C(=O)C=C(C)C2=O)nc1C` [Example 46, Ethyl 2-[N-(1'-aminocitraconamido)]-4-methylpyrimidine-5-carboxylate], with 4000 nM.

Regarding `CCOC(=O)c1cnc(NN2C(=O)C=C(C)C2=O)nc1C(F)(F)C(F)(F)F` [Example 48, Ethyl 2-[N-(1'-aminocitraconamido)]-4-pentafluoroethylpyrimidine-5-carboxylate], the IC50 amounted to 90 nM. `CCOC(=O)c1cnc(NN2C(=O)C=C(C)C2=O)nc1-c1ccccc1` [Example 50, Ethyl 2-[N-(1'-aminocitraconamido)]-4-phenylpyrimidine-5-carboxylate] came in with a 50% inhibitory concentration (IC50) of 1000 nM. On to `CCOC(=O)c1cnc(NN2C(=O)C=C(C)C2=O)nc1Cc1ccccc1` [Example 52, Ethyl 2-[N-(1'-aminocitraconamido)]-4-benzylpyrimidine-5-carboxylate], for which the IC50 turned out to be 2000 nM. The compound `CCOC(=O)c1cnc(NN2C(=O)C=C(C)C2=O)nc1C(=O)OCC` [Example 64, Diethyl 2-[N-(1'-aminocitraconamido)]-pyrimidine-4,5-dicarboxylate] returned an IC50 of 1000 nM.

Another experiment concerns C3H mice.
Test: not given
The conditions noted are these: Morris et al., 1990; cited from earlier work.
With `O=P1(N(CCCl)CCCl)NCCCO1` (centres unmarked) [cyclophosphamide], the “activity in graft vs. host model (PLN assay)” value was “active”.
